{"source": "paper PMC5937704", "about": "(Biochemistry, 2018)", "origin": "cited, not measured here", "key": {"[1]": {"system": "bromodomain 1 (BD1) of TAF1"}, "[2]": {"system": "bromodomain 2 (BD2) of TAF1"}}, "data": [{"smiles": "CCOC(=O)Nc1cc(-c2ccc(C)c(NS(C)(=O)=O)c2)nn2c(C)nnc12", "note": "[BSP, Bromosporine]", "values": [{"measurement": "affinity for BD1 of TAF1", "setting": "[1]", "value": "significantly weaker (micromolar) affinity"}, {"measurement": "affinity for BD2 of TAF1", "setting": "[2]", "value": "nanomolar affinity"}]}]}
